Measurements as given in PubChem BioAssay AID330 (DTP/NCI, 2004).
“And” between values parts separate entries of the source, which are not always exact repeats. Identical values can stand only once. Inconclusive results and toxic doses are left out. How the source made its calls: active means survival T/C of 150% or more; inactive means T/C below 125% in these data.

Tested on: P388 leukemia ip, CD2F1 mice, survival T/C
Test: NCI In Vivo Anticancer Drug Screen. Data for tumor model P388 Leukemia (intraperitoneal) in CD2F1 (CDF1) mice
Conditions: endpoint: median survival time, higher = longer survival
In short: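 Mice carrying the transplanted tumor received test compound or vehicle. Survival was recorded in each group, and the value is the treated-group measurement divided by that of the vehicle-treated control group.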

[1] = dose: 100.0 mg/kg/injection, schedule: Q01DX001 (ip), vehicle: Klucel (hydroxypropylcellulose) (HPC)
[2] = dose: 200.0 mg/kg/injection, schedule: Q01DX001 (ip), vehicle: Klucel (hydroxypropylcellulose) (HPC)
[3] = dose: 400.0 mg/kg/injection, schedule: Q01DX001 (ip), vehicle: Klucel (hydroxypropylcellulose) (HPC)
[4] = dose: 50.0 mg/kg/injection, schedule: Q01DX001 (ip), vehicle: Klucel (hydroxypropylcellulose) (HPC)
[5] = dose: 50.0 mg/kg/injection, schedule: Q01DX009 (ip), vehicle: saline with Tween-80
[6] = dose: 50.0 mg/kg/injection, schedule: Q01DX005 (ip), vehicle: Klucel (hydroxypropylcellulose) (HPC)
[7] = dose: 100.0 mg/kg/injection, schedule: Q01DX005 (ip), vehicle: Klucel (hydroxypropylcellulose) (HPC)
[8] = dose: 200.0 mg/kg/injection, schedule: Q01DX005 (ip), vehicle: Klucel (hydroxypropylcellulose) (HPC)
[9] = dose: 50.0 mg/kg/injection, schedule: Q01DX005 (ip), vehicle: saline with Tween-80
[10] = dose: 100.0 mg/kg/injection, schedule: Q01DX005 (ip), vehicle: saline with Tween-80
[11] = dose: 200.0 mg/kg/injection, schedule: Q01DX005 (ip), vehicle: saline with Tween-80
[12] = dose: 60.0 mg/kg/injection, schedule: Q01DX005 (ip), vehicle: saline with Tween-80
[13] = dose: 60.0 mg/kg/injection, schedule: Q01DX005 (ip), vehicle: saline
[14] = dose: 50.0 mg/kg/injection, schedule: Q01DX009 (ip), vehicle: Klucel (hydroxypropylcellulose) (HPC)
[15] = dose: 100.0 mg/kg/injection, schedule: Q01DX009 (ip), vehicle: Klucel (hydroxypropylcellulose) (HPC)
[16] = dose: 200.0 mg/kg/injection, schedule: Q01DX009 (ip), vehicle: Klucel (hydroxypropylcellulose) (HPC)
[17] = dose: 12.5 mg/kg/injection, schedule: Q01DX005 (ip), vehicle: saline with Tween-80
[18] = dose: 25.0 mg/kg/injection, schedule: Q01DX005 (ip), vehicle: saline with Tween-80
[19] = dose: 12.5 mg/kg/injection, schedule: Q01DX009 (ip), vehicle: saline with Tween-80
[20] = dose: 25.0 mg/kg/injection, schedule: Q01DX009 (ip), vehicle: saline with Tween-80
[21] = dose: 60.0 mg/kg/injection, schedule: Q01DX005 (ip), vehicle: Klucel (hydroxypropylcellulose) (HPC)
[22] = dose: 120.0 mg/kg/injection, schedule: Q01DX005 (ip), vehicle: Klucel (hydroxypropylcellulose) (HPC)
[23] = dose: 240.0 mg/kg/injection, schedule: Q01DX005 (ip), vehicle: Klucel (hydroxypropylcellulose) (HPC)

Measured: T/C

CC(C)=CCc1cc2c(cc1O)OC[C@H]1c3cc4c(cc3O[C@@H]21)OCO4
inactive: [1] 91 % of control | [2] 96 % of control | [3] 91 % of control

COC(=O)C(Br)CN1C(=O)c2ccccc2C1=O (stereo unspecified)
inactive: dose: 25.0 mg/kg/injection, schedule: Q01DX009 (ip), vehicle: other 102 % of control | dose: 50.0 mg/kg/injection, schedule: Q01DX009 (ip), vehicle: other 101 % of control | dose: 100.0 mg/kg/injection, schedule: Q01DX009 (ip), vehicle: other 106 % of control | dose: 200.0 mg/kg/injection, schedule: Q01DX009 (ip), vehicle: other 104 % of control | dose: 400.0 mg/kg/injection, schedule: Q01DX009 (ip), vehicle: other 104 % of control

O=C(C(Oc1ccc(Cl)cc1)n1cncn1)N1CCOC1C1CCCCC1 (stereo unspecified)
inactive: [4] 103 % of control | [1] 100 % of control | [2] 100 % of control

O=C1CCCN1CC#CCN1CCCC1
inactive: dose: 0.79 mg/kg/injection, schedule: Q01DX001 (ip), vehicle: saline 97 % of control | dose: 0.79 mg/kg/injection, schedule: Q01DX005 (ip), vehicle: saline 100 % of control | dose: 1.56 mg/kg/injection, schedule: Q01DX001 (ip), vehicle: saline 103 % of control | dose: 1.56 mg/kg/injection, schedule: Q01DX005 (ip), vehicle: saline 97 % of control | dose: 3.12 mg/kg/injection, schedule: Q01DX001 (ip), vehicle: saline 105 % of control | dose: 3.12 mg/kg/injection, schedule: Q01DX005 (ip), vehicle: saline 97 % of control

N#CC12OC1(Cl)CCCC2(Cl)Cl (stereo unspecified)
inactive: [5] 95 % of control | dose: 100.0 mg/kg/injection, schedule: Q01DX009 (ip), vehicle: saline with Tween-80 95 % of control | dose: 200.0 mg/kg/injection, schedule: Q01DX009 (ip), vehicle: saline with Tween-80 86 % of control

Cc1ccc(S(=O)(=O)NC(CN(CC(=O)O)N=O)C(=O)O)cc1 (stereo unspecified)
inactive: [6] 97 % of control | [7] 96 % of control | [8] 98 % of control

CC(=O)OCC1OC(OC(C)=O)C(NC(=S)NCC(=O)c2ccc(C)cc2)C(OC(C)=O)C1OC(C)=O (stereo unspecified)
inactive: [9] 99 % of control | [10] 100 % of control | [11] 101 % of control

O=C(C1CC2C=CC1C2)N1CCCCC1 (stereo unspecified)
inactive: dose: 50.0 mg/kg/injection, schedule: Q01DX009 (ip), vehicle: saline 90 % of control | dose: 100.0 mg/kg/injection, schedule: Q01DX009 (ip), vehicle: saline 91 % of control | dose: 200.0 mg/kg/injection, schedule: Q01DX009 (ip), vehicle: saline 98 % of control

COc1cc(C(c2c(O)c3ccccc3oc2=O)N2CCCC2)cc(OC)c1OC (stereo unspecified)
inactive: [12] 107 % of control | dose: 120.0 mg/kg/injection, schedule: Q01DX005 (ip), vehicle: saline with Tween-80 101 % of control | dose: 240.0 mg/kg/injection, schedule: Q01DX005 (ip), vehicle: saline with Tween-80 104 % of control

CC/C(=N/N(C)C)C(=O)OC(C)(C)C
inactive: [13] 95 % of control | dose: 120.0 mg/kg/injection, schedule: Q01DX005 (ip), vehicle: saline 93 % of control | dose: 240.0 mg/kg/injection, schedule: Q01DX005 (ip), vehicle: saline 90 % of control

CC(=O)Oc1cc(C)c(Cl)c2c(OC(C)=O)cc(C(C)=O)c(O)c12
inactive: [14] 91 % of control | [15] 91 % of control | [16] 90 % of control

COc1ccc(N(C)C(=O)/C=C/N2CCCCC2)cc1
inactive: dose: 12.5 mg/kg/injection, schedule: Q01DX005 (ip), vehicle: Klucel (hydroxypropylcellulose) (HPC) 107 % of control | dose: 25.0 mg/kg/injection, schedule: Q01DX005 (ip), vehicle: Klucel (hydroxypropylcellulose) (HPC) 98 % of control | [6] 114 % of control and 98 % of control | [7] 124 % of control and 96 % of control | [8] 109 % of control

CCCCCCCCCCCCCCCC[n+]1ccc(C(N)=O)cc1
inactive: dose: 3.0 mg/kg/injection, schedule: Q01DX009 (ip), vehicle: saline with Tween-80 109 % of control | dose: 6.0 mg/kg/injection, schedule: Q01DX009 (ip), vehicle: saline with Tween-80 118 % of control | dose: 12.0 mg/kg/injection, schedule: Q01DX009 (ip), vehicle: saline with Tween-80 109 % of control

Cc1c2c(nc3ccccc13)-c1ccccc1C(C)(C)C2O (stereo unspecified)
inactive: dose: 100.0 mg/kg/injection, schedule: Q01DX001 (ip), vehicle: saline with Tween-80 99 % of control | dose: 200.0 mg/kg/injection, schedule: Q01DX001 (ip), vehicle: saline with Tween-80 106 % of control | dose: 400.0 mg/kg/injection, schedule: Q01DX001 (ip), vehicle: saline with Tween-80 106 % of control

C=CCN1C(=O)[N+](C)(C)N=C1[O-]
inactive: dose: 100.0 mg/kg/injection, schedule: Q04DX003 (ip), vehicle: saline 106 % of control | dose: 200.0 mg/kg/injection, schedule: Q04DX003 (ip), vehicle: saline 106 % of control | dose: 400.0 mg/kg/injection, schedule: Q04DX003 (ip), vehicle: saline 101 % of control

O=C(CCl)Nc1cccc(CCC(=O)c2ccccc2NC(=O)CCl)c1
inactive: dose: 15.0 mg/kg/injection, schedule: Q01DX005 (ip), vehicle: saline 102 % of control | dose: 30.0 mg/kg/injection, schedule: Q01DX005 (ip), vehicle: saline 106 % of control | [12] 100 % of control | [13] 100 % of control

COC(=O)C1=CN(C)C(c2ccccc2)C=C1 (stereo unspecified)
inactive: [9] 103 % of control | [10] 107 % of control | [11] 112 % of control

CCC1(CCC(=O)OC)CCC[N+]2=C1c1[nH]c3ccc(Br)cc3c1CC2 (stereo unspecified)
inactive: dose: 6.25 mg/kg/injection, schedule: Q01DX005 (ip), vehicle: saline with Tween-80 97 % of control | [17] 100 % of control | [18] 94 % of control | dose: 50.0 mg/kg/injection, schedule: Q01DX005 (ip), vehicle: saline 86 % of control

O=C1CN(Cc2ccc(Cl)cc2)CC(=O)N2CCCN12
inactive: [17] 96 % of control | [18] 100 % of control | [9] 100 % of control

O=C(C[n+]1ccccc1)N/N=C/c1cccc([N+](=O)[O-])c1
inactive: [19] 102 % of control | [20] 99 % of control | [5] 103 % of control

c1ccc(C2=NCCN=C2c2ccccc2)cc1
inactive: [1] 94 % of control | [2] 99 % of control | [3] 93 % of control

CN(C)c1ccc(C2CC(C)(O)Oc3cc4c(cc32)OCO4)cc1 (stereo unspecified)
inactive: [21] 102 % of control | [22] 110 % of control | [23] 108 % of control

COCC(=O)Nc1ncc([N+](=O)[O-])s1
inactive: [14] 102 % of control | [15] 100 % of control | [16] 94 % of control

COC1/C=C/OC2(C)Oc3c(C)c(O)c4c(O)c(c(/C=N/N5C(C)CN(Cc6cccc(C#N)c6)CC5C)c(O)c4c3C2=O)NC(=O)/C(C)=C\C=C\C(C)C(O)C(C)C(O)C(C)C(OC(C)=O)C1C (stereo unspecified)
inactive: [19] 110 % of control | [20] 109 % of control | [5] 109 % of control and 118 % of control

CCOP(O)(=S)OCC.[Y]
inactive: [4] 90 % of control | [1] 87 % of control | [2] 95 % of control

CC(C)=CC(C)(O)c1nc2ccccc2s1 (stereo unspecified)
inactive: [21] 95 % of control | [22] 93 % of control | [23] 96 % of control

CN(C)C(=O)CC(c1ccccc1)C(CO)c1ccccc1 (stereo unspecified)
inactive: dose: 25.0 mg/kg/injection, schedule: Q01DX001 (ip), vehicle: Klucel (hydroxypropylcellulose) (HPC) 88 % of control | [4] 91 % of control | [1] 89 % of control | [2] 88 % of control
